These are literature values, as cited in article PMC6974622, “DeepMalaria: Artificial Intelligence Driven Discovery of Potent Antiplasmodials” (Frontiers in Pharmacology, 2020).

The test system of the data set is 3D7. On the set-up: unit not given here. The following applies: cited from earlier work.
The mark [1] stands for this setting: repurposing dataset, 179 approved drugs, ref https://www.nature.com/articles/nchembio806.

Where “and” joins values, the source holds several entries; their conditions need not be identical. Equal values may be shown once. Where a name gives a salt, the structure may show the parent alone. Read-outs that look alike come from different tables or passages of the source. *1 amine or outer side, *2 acyl side, *3 side chain or, on linkers, in order; H or OH if unused. Where a SMILES comes first, the peptide text is derived from it. Bridges are numbered along the chain shown (N, C = ends). Roman numbers before positions name the chains, in order. [ ]: non-standard residue; d: D form. Actinocin(1to9) = Cc1c2oc3c(C)ccc(C(=O)[*:2])c3nc-2c(C(=O)[*:1])c(N)c1=O; Actinocin(9to1) = Cc1c2oc3c(C)ccc(C(=O)[*:1])c3nc-2c(C(=O)[*:2])c(N)c1=O; NMeV = CN[C@H](C(=O)O)C(C)C; Sar = CNCC(=O)O

For the compound `CO[C@H]1/C=C\O[C@@]2(C)Oc3c(C)c(O)c4c(O)c(c(C=O)c(O)c4c3C2=O)NC(=O)/C(C)=C\C=C/[C@H](C)[C@H](O)[C@@H](C)[C@@H](O)[C@@H](C)[C@H](OC(C)=O)[C@@H]1C` [3-formyl rifamycin], the 3D7 under setting [1] is 99.

Turning to `N[C@H](C(=O)O)[C@@H]1CC(Cl)=NO1` [Acivicin], the 3D7 under setting [1] is reported as 98.6. `CC[C@@]1(O)C[C@H](O[C@H]2C[C@H](N(C)C)[C@H](O[C@H]3C[C@H](O)[C@H](O[C@H]4CCC(=O)[C@H](C)O4)[C@H](C)O3)[C@H](C)O2)c2c(cc3c(c2O)C(=O)c2c(O)cccc2C3=O)[C@H]1C(=O)OC` [Aclarubicin]: under setting [1], the 3D7 is 99.6. With `C[n+]1c2cc(N)ccc2cc2ccc(N)cc21.Nc1ccc2cc3ccc(N)cc3nc2c1.[Cl-]` [Acriflavine], under setting [1], the 3D7 is 98.2 and 99. Take `CCCCCCc1ccc(O)cc1O.Nc1c2ccccc2nc2ccccc12` [Acrisorcin]: the 3D7 under setting [1] was 98.4. Take `C=CC(=O)O` [Acrylic acid]: the 3D7 under setting [1] is reported as 68.8. For the compound `CCCCC(CC)CNC(=N)NC(=N)NCCCCCCNC(=N)NC(=N)NCC(CC)CCCC` (stereo not drawn) [Alexidine], under setting [1], the 3D7 is recorded as 99.5. `N=C(N)NC(=O)c1nc(Cl)c(N)nc1N` [Amiloride]: the 3D7 under setting [1] is 73.2. Consider `Nc1c2ccccc2nc2ccccc12` [Aminacrine], for which the 3D7 under setting [1] is on record as 97.6. Consider `Nc1nc(N)c2nc(CNc3ccc(C(=O)N[C@@H](CCC(=O)O)C(=O)O)cc3)cnc2n1` [Aminopterin], for which the 3D7 under setting [1] is 95.7. Regarding `CCOC(=O)C1=C(COCCN)NC(C)=C(C(=O)OC)C1c1ccccc1Cl` (stereo not drawn) [Amlodipine besylate], the 3D7 under setting [1] is on record as 68.2. With `C[C@@H]1[C@H](O)[C@@H](C)/C=C/C=C/C=C/C=C/C=C/C=C/C=C/[C@H](O[C@@H]2O[C@H](C)[C@@H](O)[C@H](N)[C@@H]2O)C[C@@H]2O[C@](O)(C[C@@H](O)C[C@@H](O)[C@H](O)CC[C@@H](O)C[C@@H](O)CC(=O)O[C@H]1C)C[C@H](O)[C@H]2C(=O)O` [Amphotericin B], the 3D7 under setting [1] is given as 59.2. As for `COc1ccc(C[C@H]2NC[C@H](O)[C@H]2OC(C)=O)cc1` [Anisomycin], the 3D7 under setting [1] is recorded as 97.

On to `C[C@@H]1CC[C@H]2[C@@H](C)C(=O)O[C@@H]3O[C@@]4(C)CC[C@@H]1[C@]32OO4` [Artemisinin], for which, under setting [1], the 3D7 is given as 99.1. Take `C[C@H]1[C@H](OC(=O)CCC(=O)O)O[C@@H]2O[C@@]3(C)CC[C@H]4[C@H](C)CC[C@@H]1[C@@]24OO3` [Artesunate]: the 3D7 under setting [1] is given as 98.7. As for `COc1ccc(CCN2CCC(Nc3nc4ccccc4n3Cc3ccc(F)cc3)CC2)cc1` [Astemizole], the 3D7 under setting [1] was 97.6.

As for `CC(=O)OC[C@H]1O[C@@H]([S-])[C@H](OC(C)=O)[C@@H](OC(C)=O)[C@@H]1OC(C)=O.CCP(CC)CC.[Au+]` [Auranofin], the 3D7 under setting [1] is 99.4. Regarding `CC[C@H]1OC(=O)[C@H](C)[C@@H](O[C@H]2C[C@@](C)(OC)[C@@H](O)[C@H](C)O2)[C@H](C)[C@@H](O[C@@H]2O[C@H](C)C[C@H](N(C)C)[C@H]2O)[C@](C)(O)C[C@@H](C)CN(C)[C@H](C)[C@@H](O)[C@]1(C)O` [Azithromycin], the 3D7 under setting [1] is listed as 80.2.

Consider `CC1=CC(=C(c2ccc(N)cc2)c2ccc(N)cc2)C=CC1=N.Cl` [Basic fuchsin], for which the 3D7 is reported as 96.3. Regarding `CC(C)(C)CC(C)(C)c1ccc(OCCOCC[N+](C)(C)Cc2ccccc2)cc1` [Benzethonium chloride], the 3D7 under setting [1] is on record as 98.6. Regarding `CCCCCCCCCCCC[N+](C)(C)Cc1ccccc1` [Benzododecinium chloride], the 3D7 under setting [1] is recorded as 99.9. Turning to `CN1[C@@H]2CC[C@H]1C[C@@H](OC(c1ccccc1)c1ccccc1)C2` [Benztropine mesylate], under setting [1], the 3D7 is recorded as 70.6. `C[N+](C)(CCOc1ccccc1)Cc1ccccc1.O=C(O)c1cc2ccccc2cc1[O-]` [Bephenium hydroxynaphthoate]: the 3D7 under setting [1] was 70.2. With `COc1ccc2cc3[n+](cc2c1OC)CCc1cc2c(cc1-3)OCO2` [Berberine], the 3D7 under setting [1] is recorded as 98.2. Take `O.O=C(O)c1cc(O)c2c(c1)[O][Bi][O]2` [Bismuth gallate]: the 3D7 under setting [1] is given as 56.5. For the compound `CN(C)CCOC(c1ccccc1)c1ccc(Br)cc1` (stereo not drawn) [Bromodiphenhydramine], the 3D7 under setting [1] is given as 64.2.

Take `Oc1c(Br)cc(Br)c2cccnc12` [Broxyquinoline]: the 3D7 under setting [1] is listed as 90.8. As to `CCCCOc1ccc(CC(=O)NO)cc1` [Bufexamac], the 3D7 under setting [1] is recorded as 93.2. Consider `CC[C@H](C)[C@@H]1NC(=O)[C@@H](NC(=O)c2c3nc4c(C(=O)N[C@@H]5C(=O)N[C@@H](C(C)C)C(=O)N6CCC[C@H]6C(=O)N(C)CC(=O)N(C)[C@@H](C(C)C)C(=O)O[C@@H]5C)ccc(C)c4oc-3c(C)c(=O)c2N)[C@@H](C)OC(=O)[C@H](C(C)C)N(C)C(=O)CN(C)C(=O)[C@@H]2CCCN2C1=O` [Cactinomycin] (I: TIP[Sar][NMeV] / II: TVP[Sar][NMeV]; ester I:1-I:C, II:1-II:C; linker I:N-II:N via Actinocin(1to9)), for which the 3D7 is recorded as 99.

Consider `CCCCCCCCCCCCCCCC[N+](C)(C)Cc1ccccc1` [Cetalkonium chloride], for which, under setting [1], the 3D7 is given as 74.2. With `CCCCCCCCCCCCCCCC[n+]1ccccc1` [Cetylpyridinium chloride], under setting [1], the 3D7 was 98.6. In the case of `[H]/N=C(\N/C(=N/[H])NCCCCCCNC(=N)NC(=N)Nc1ccc(Cl)cc1)Nc1ccc(Cl)cc1` [Chlorhexidine], the 3D7 under setting [1] is recorded as 95.4. Regarding `CCN(CC)CCCC(C)Nc1ccnc2cc(Cl)ccc12` (stereo not drawn) [Chloroquine diphosphate], the 3D7 under setting [1] was 97.3. Consider `CN(C)CCOC(C)(c1ccccc1)c1ccc(Cl)cc1` (stereo not drawn) [Chlorphenoxamine], for which, under setting [1], the 3D7 was 90.8. For the compound `CO[C@@H]1[C@H](O)C[C@@H](O[C@@H]2C[C@H](Oc3cc4cc5c(c(O)c4c(O)c3C)C(=O)[C@@H](O[C@H]3C[C@@H](O[C@H]4C[C@@H](O[C@H]6C[C@](C)(O)[C@@H](OC(C)=O)[C@H](C)O6)[C@H](O)[C@@H](C)O4)[C@H](O)[C@@H](C)O3)[C@H]([C@H](OC)C(=O)[C@@H](O)[C@@H](C)O)C5)O[C@H](C)[C@@H]2OC(C)=O)O[C@@H]1C` [Chromomycin A3], under setting [1], the 3D7 is listed as 98.4. With `Cc1cc(C2CCCCC2)n(O)c(=O)c1` [Ciclopirox olamine], the 3D7 under setting [1] is 96.9. Consider `C=C[C@H]1CN2CC[C@H]1C[C@H]2[C@H](O)c1ccnc2ccccc12` [Cinchonidine], for which the 3D7 under setting [1] is 97. Take `C=C[C@H]1CN2CC[C@H]1C[C@@H]2[C@@H](O)c1ccnc2ccccc12.C=C[C@H]1CN2CC[C@H]1C[C@@H]2[C@@H](O)c1ccnc2ccccc12.O=S(=O)(O)O` [Cinchonine sulfate]: the 3D7 under setting [1] was 88.6.

Turning to `CN1CCC[C@@H]1CCO[C@](C)(c1ccccc1)c1ccc(Cl)cc1` [Clemastine], the 3D7 under setting [1] is listed as 96.5. Turning to `NC1CCN(c2c(F)cc3c(=O)c(C(=O)O)cn(C4CC4)c3c2Cl)C1` (stereo not drawn) [Clinafloxacin], the 3D7 under setting [1] is listed as 79.3. Consider `CCC(=O)O[C@]1(C(=O)CCl)[C@@H](C)C[C@H]2[C@@H]3CCC4=CC(=O)C=C[C@]4(C)[C@@]3(F)[C@@H](O)C[C@@]21C` [Clobetasol propionate], for which, under setting [1], the 3D7 is listed as 86. For `Oc1ccc(Cl)c2cccnc12` [Cloxyquin], the 3D7 under setting [1] is reported as 83.6. With `O=S(=O)([O-])[O-].[Cu+2]` [Copper sulfate], the 3D7 under setting [1] is 80.4. As to `C[C@@H]1C[C@@H]([C@H](O)CC2CC(=O)NC(=O)C2)C(=O)[C@@H](C)C1` [Cycloheximide], the 3D7 under setting [1] was 97.7. In the case of `O=P1(N(CCCl)CCCl)NCCCO1` (stereo not drawn) [Cyclophosphamide], the 3D7 was 56.2. In the case of `Cc1c2oc3c(C)ccc(C(=O)N[C@@H]4C(=O)N[C@H](C(C)C)C(=O)N5CCC[C@H]5C(=O)N(C)CC(=O)N(C)[C@@H](C(C)C)C(=O)O[C@@H]4C)c3nc-2c(C(=O)N[C@@H]2C(=O)N[C@H](C(C)C)C(=O)N3CCC[C@H]3C(=O)N(C)CC(=O)N(C)[C@@H](C(C)C)C(=O)O[C@@H]2C)c(N)c1=O` [Dactinomycin] (I: T[dV]P[Sar][NMeV] / II: T[dV]P[Sar][NMeV]; ester I:1-I:C, II:1-II:C; linker I:N-II:N via Actinocin(9to1)), under setting [1], the 3D7 was 99.2. Turning to `COc1cccc2c1C(=O)c1c(O)c3c(c(O)c1C2=O)C[C@@](O)(C(C)=O)C[C@@H]3O[C@H]1C[C@H](N)[C@H](O)[C@H](C)O1` [Daunorubicin], the 3D7 under setting [1] is given as 99.6. For the compound `C[N+](C)(C)CCCCCCCCCC[N+](C)(C)C` [Decamethonium bromide], the 3D7 under setting [1] is listed as 54.8. For the compound `CN(CCCCCCCCCCN(C)C(=O)Oc1cccc([N+](C)(C)C)c1)C(=O)Oc1cccc([N+](C)(C)C)c1` [Demecarium bromide], the 3D7 under setting [1] is 95.9.

In the case of `Cc1cc(N)c2ccccc2[n+]1CCCCCCCCCC[n+]1c(C)cc(N)c2ccccc21` [Dequalinium chloride], under setting [1], the 3D7 is 97.6. With `Clc1ccc2c(c1)CCc1cccnc1C2=C1CCNCC1` [Desloratadine], the 3D7 under setting [1] is given as 81.1. Consider `Oc1ccc(CCN2CCC(Nc3nc4ccccc4n3Cc3ccc(F)cc3)CC2)cc1` [Desmethylastemizole], for which the 3D7 under setting [1] is 96.7.

Regarding `CCOC(=O)NC1=C(N2CC2)C(=O)C(NC(=O)OCC)=C(N2CC2)C1=O` [Diaziquone], the 3D7 under setting [1] was 97.3. For the compound `CC/C(=C(/CC)c1ccc(O)cc1)c1ccc(O)cc1` [Diethylstilbestrol], the 3D7 under setting [1] is 57.3. On to `CN1C[C@H](C(=O)N[C@]2(C)O[C@@]3(O)[C@@H]4CCCN4C(=O)[C@H](Cc4ccccc4)N3C2=O)C[C@@H]2c3cccc4[nH]cc(c34)C[C@H]21` [Dihydroergotamine mesylate], for which the 3D7 under setting [1] is on record as 88.1. For the compound `C[N+]1(C)CCC(=C(c2ccccc2)c2ccccc2)CC1` [Diphemanil], the 3D7 under setting [1] was 90. Consider `CCN1/C(=C/C=C/C=C/c2sc3ccccc3[n+]2CC)Sc2ccccc21` [Dithiazanine iodide], for which, under setting [1], the 3D7 is given as 98. With `CCCCCCCCCCCC[N+](C)(C)CCOc1ccccc1` [Domiphen bromide], under setting [1], the 3D7 is given as 98.3.

For `O=c1[nH]c2ccccc2n1CCCN1CCC(n2c(=O)[nH]c3cc(Cl)ccc32)CC1` [Domperidone], the 3D7 under setting [1] is 82.2. Consider `COc1cc2nc(N3CCN(C(=O)C4COc5ccccc5O4)CC3)nc(N)c2cc1OC` (stereo not drawn) [Doxazosin mesylate], for which the 3D7 under setting [1] is 96.4.
